In patent US6350739B1, “Methods of prevention and treatment of ischemic damage” (University of Florida Resarch Foundation, Inc., priority 1999, dated 2002):
Entries after “also recorded” stand apart in the source; their conditions may differ. Marks after values point to notes of the source that are not given here.

Tests used:
[1] = system: ischemia induced by middle cerebral artery occlusion (MCAO); assay: Pretreatment with estrogen compound before middle cerebral artery occlusion (MCAO) in ovariectomized rats; type: in vivo, rat; set-up: % Survival: concentration or dose not given beside the values
Protocol: Rats were used as experimental models to test the effects of estrogen compounds in protecting against ischemic damage. To remove the naturally occurring source of estrogen, ovariectomies were performed prior to induction of ischemia.
Subsequent to the ovariectomy, rats were treated with an estrogen compound either by subcutaneous delivery with Silastic® tubes 24 hours prior to the MCA occlusion or by intravenous delivery as follows:
Subcutaneous sustained delivery: 17β- or 17α-estradiol was packed into 5 mm long Silastic® tubes (Dow-Corning, Midland, Mich.) according to the method of Mohammed et al. 1985 Ann. Neurol 18, 705-711. Sham (empty) tubes were similarly prepared as estrogen negative controls. […]
The control was administered HPCD only. The chemical delivery system is formulated so that the estrogen is slowly released from the carrier.
At 7 to 8 days after ovariectomy, a method for occluding the […] was applied to the rat using modifications of the methods of Longa et al. (1989) Stroke, vol. 20, 84-91; and Nagasawa et al. (1989) Stroke, vol.20, 1037-1043, with certain modifications, as described herein.
Animals were anesthetized by ip injection with ketamine (60 mg/kg) and xylazine (10 mg/kg). Rectal temperature was monitored and maintained between 36.5 and 37.0 C with a heat lamp throughout the entire procedure. The left carotid artery was exposed through a midline cervical incision. The left sternohyloid, sternomastoid, digastric (posterior belly) and the omohyloid muscles were divided and retracted. Part of the greater horn of the hyloid bone was cut to facilitate exposure of the distal external carotid artery (ECA). The common carotid artery (CCA), ECA, and internal carotid artery (ICA) were dissected away from adjacent nerves. The distal ECA and its branches, the CCA, and the pterygopalatine arteries were coagulated completely. A microvascular clip was placed on the ICA near skull base. A 2.5 cm length of 3-0 monofilament nylon suture was heated to create a globule for easy movement and blocking of the lumen of the vessel. This was introduced into the ECA lumen through the puncture. The suture was gently advanced to the distal ICA until it reached the clipped position. The microvascular clip was then removed and the suture was inserted until resistance was felt. The distance between the CCA bifurcation and the resistive point was about 1.8 cm. This operative procedure was completed within 10 minutes without bleeding. After the prescribed occlusion tine (40 minutes), the suture was withdrawn from the ICA and the distal ICA was immediately cauterized.
Animals that survived until the scheduled sacrifice time were sacrificed by decapitation. Scheduled post-ischemic sacrifices occurred at 6 hours, 24 hours and 1 week post MCAO (Table 1). For the 6-hour sample, animals were monitored continuously. […] Similarly, animals scheduled for the 1 week post-ischemic sacrifice were monitored for the first 4 hours after surgery and then daily thereafter.
The brains were isolated from the decapitated heads, sliced into 3 or 5 coronal tissue slices as described below and then stained with hematoxylin and eosin to determine the extent of the ischemic area Stained slices were photographed and subsequently imaged using a Macintosh Cadre 800 computer, equipped with an Image 1.47 software program for the assessment of the cross-sectional area of the ischemic lesion. These images and the calculated area of ischemic damage were stored in the program for later retrieval and data reduction. The significance of differences in mortality among the different treatment groups was determined using Chi-Square analysis.
Ovariectomized rats were treated with 5 mm Silastic® tubes containing 17α-estradiol at 24 hours prior to MCAO. At 24 hours after the MCAO, the animals were sacrificed and the brains extracted.

[2] = system: ischemia induced by middle cerebral artery occlusion (MCAO); assay: Post-treatment with E2-CDS after onset of MCAO in ovariectomized rats; type: in vivo, rat
Protocol: At 7 to 8 days after ovariectomy, a method for occluding the middle carotid artery was applied to the rat using modifications of the methods of Longa et al. (1989) Stroke, vol.
Animals were anesthetized by ip injection with ketamine (60 mg/kg) and xylazine (10 mg/kg). Rectal temperature was monitored and maintained between 36.5 and 37.0 C with a heat lamp throughout the entire procedure. The left carotid artery was exposed through a midline cervical incision. The left sternohyloid, sternomastoid, digastric (posterior belly) and the omohyloid muscles were divided and retracted. Part of the greater horn of the hyloid bone was cut to facilitate exposure of the distal external carotid artery (ECA). The common carotid artery (CCA), ECA, and internal carotid artery (ICA) were dissected away from adjacent nerves. The distal ECA and its branches, the CCA, and the pterygopalatine arteries were coagulated completely. A microvascular clip was placed on the ICA near skull base. A 2.5 cm length of 3-0 monofilament nylon suture was heated to create a globule for easy movement and blocking of the lumen of the vessel. This was introduced into the ECA lumen through the puncture. The suture was gently advanced to the distal ICA until it reached the clipped position. The microvascular clip was then removed and the suture was inserted until resistance was felt. […]

[3] = system: primary rat brain capillary endothelial cells (BCEC); assay: Brain capillary endothelial cell mortality under hypoglycemia (Trypan blue); type: cell-based; conditions: 2 nM
Protocol: Neurochemistry vol. 25, 715-717, 1975, incorporated herein by reference. […] The glucose concentration of the culture media was then adjusted from 20 mg % to 200 mg % by adding appropriate amount of D-(+)-glucose to the glucose-free media and monitored by Glucose and L-Lactate Analyzer (YSI model 2300 STAT plus, YSI, Inc., Yellow Springs, Ohio). The hypoglycemic cultures were maintained for 24 hours or 48 hours prior to staining with Trypan blue. Cell mortality was counted using Trypan blue staining method. Cell death percentage was calculated as dead cell/alive cell×100%. Statistical methods used included two-way analysis of variance, applied to determine the significance of the difference among the experimental groups. Kruskal-Wallis nonparametric analysis was used for data presented as percentage. […] P<0.05 was considered significant.

[4] = system: primary rat brain capillary endothelial cells (BCEC); assay: Brain capillary endothelial cell mortality under anoxia (Trypan blue); type: cell-based; conditions: 2 nM, 200 mg % glucose
Protocol: (§1) Primary rat brain capillary endothelial cells (BCEC) cultures were prepared following the method of Goldstein, J. Neurochemistry vol.
(§2) Nitrogen gas was influxed to replace the oxygen inside the chamber. The chamber was sealed and placed in the incubator for four hours for nonhypoglycemic cultures and 2 hours for hypoglycemic cultures.

[5] = system: primary rat brain capillary endothelial cells (BCEC); assay: Brain capillary endothelial cell mortality under combined anoxia and hypoglycemia; type: cell-based; conditions: 2 nM; 100 mg % glucose and 2 hours anoxia
Protocol: as §1, §2

[6] = system: ischemia induced by middle cerebral artery occlusion (MCAO); assay: Post-treatment at 0.5, 1, 2, 3 and 4 hours after MCAO, ischemic lesion volume; type: in vivo, rat; conditions: iv 100 μg/kg HPCD-complexed plus Silastic pellet at 0.5, 1, 2, or 3 hours post-occlusion; 48 hours after MCAO
Protocol: Ovariectomized, non-treated animals (OVX) and non-ovariectomized, non-treated animals (INT) were used as controls (n=12 and n=6, respectively). At 48 hours following MCAO, animals were sacrificed and ischemic lesion volume was determined by obtaining brain sections as previously described and staining with TTC.

[7] = system: middle cerebral artery (MCA) occlusion; assay: Pretreatment with ent-17β-estradiol or 17β-estradiol sc in oil before MCA occlusion; type: in vivo, Sprague-Dawley female rats; conditions: for infarct area (mean±SEM): 100 μg/kg sc in oil 2 hours prior to 60 minute MCA occlusion, 24 hours reperfusion, vehicle 13.3±2.0
Protocol: Sprague-Dawley female rats ([…] body weight) were purchased from Charles River Laboratories, Inc. (Wilmington, Mass.). They were housed in pairs in hanging, stainless steel cage in a temperature controlled room (25° C.) with daily light cycle (light on 0700 to 1900 h daily) for a minimum of 3 days before surgery. All rats had free access to Purina Rat Chow and tap water. All procedures performed on animals were reviewed and approved by the Institutional Animal Care and Use Committee of the University of Florida before initiation of the study. Animals were ovariectomized at 1 week prior to middle cerebral artery (MCA) occlusion.
MCAO was achieved according to the methods described previously by us. Briefly, following administration of anesthetics of ketamine (60 mg/kg, ip) and xylazine (10 mg/kg, ip), the common carotid artery […] on the left side were exposed through a midline cervical incision and then gently dissected away from adjacent nerves. A 3-0 monofilament nylon suture was introduced into the left […] and gently advanced to the distal ICA until resistance was felt where the suture passed the bifurcation of the MCA and anterior cerebral artery (ACA). The thread was left in place for 60 minutes after which time re-perfusion was initiated. Rectal temperature was monitored and maintained between 36.5 and 37.0° C. during the entire stroke procedure. Each group of animals was decapitated after 24 hours of reperfusion. The brain was removed and placed in a metallic brain matrix for tissue slicing immediately after sacrifice. Five slices were made at […] posterior to the olfactory bulb. The slices were incubated for 30 minutes in a 2% solution of 2,3,5-triphenyltetrazolium chloride (ITC) in physiological saline at 37° C. and then were fixed in 10% formalin. The stained slices were photographed and subsequently measured for the surface area of the slices and the ischemic lesion area. Ischemic lesion volume was calculated as by the sums of the areas of ischemic lesion across the five slices divided by the total cross sectional area of these five brain slices.

[8] = 5 mm Silastic tube 24 hours prior to MCAO, sacrifice 24 hours after MCAO, vs sham
[9] = Total of all planned sacrifice times
[10] = planned sacrifice 1 Day after MCAO
[11] = planned sacrifice 1 Week after MCAO
[12] = planned sacrifice 6 hrs after MCAO

C[C@]12CC[C@@H]3c4ccc(O)cc4CC[C@H]3[C@@H]1CC[C@H]2O [17α-estradiol]
reduction of ischemic area, slice C [1, 8]: 55%
reduction of ischemic area, slice D [1, 8]: 66%
reduction of ischemic area, slice E [1, 8]: 81%
protective effect in tissue slices A-E (FIG. 3) ([1]; sustained subcutaneous delivery initiated 24 hours prior to ischemic event): significant protective effect

C[C@]12CC[C@@H]3c4ccc(O)cc4CC[C@H]3[C@@H]1CC[C@@H]2O [17β-estradiol]
reduction of ischemic lesion size of the whole coronal section, region C ([1]; 10 μg/kg sc injection two hours prior to MCAO, sacrifice at 24 hours, 9 mm caudal to olfactory bulb): 46.3%
reduction of ischemic lesion size of the whole coronal section, region D ([1]; 10 μg/kg sc injection two hours prior to MCAO, sacrifice at 24 hours, 11 mm caudal to olfactory bulb): 44.1%
Number of Animals Alive [1, 9]: 14
Number of Animals Dead [1, 9]: 4
% Survival ([1]; Total of all planned sacrifice times, pretreatment 24 hours prior to MCAO): 78%
% Survival ([1]; Total of all planned sacrifice times, pretreatment 24 hours prior to MCAO, listed as E2 Implant): 78* %
Number of Animals Alive [1, 10]: 8
Number of Animals Dead [1, 10]: 0
% Survival ([1]; planned sacrifice 1 Day after MCAO, pretreatment 24 hours prior to MCAO): 100* %
Number of Animals Alive [1, 11]: 3
Number of Animals Dead [1, 11]: 1
% Survival ([1]; planned sacrifice 1 Week after MCAO, pretreatment 24 hours prior to MCAO): 75* %
Number of Animals Alive [1, 12]: 3
Number of Animals Dead [1, 12]: 3
% Survival ([1]; planned sacrifice 6 hrs after MCAO, pretreatment 24 hours prior to MCAO): 50%
ischemic lesion, percent of cross-sectional area of brain sections ([1]; pretreatment 24 hours prior to MCAO, 3 brain slices, sacrifice 1 day or 1 week, sham 25.6±5.7%): 9.8±4.0%
mortality ([1]; pretreatment of ovariectomized rats before MCAO, untreated 65%): 22%
protective effect in tissue slices A-D (FIG. 2) ([1]; subcutaneous injection two hours prior to ischemic event): significant protective effect
reduction of ischemic area ([2]; administered 40 minutes after MCAO, range over slices): 45-90%
reduction of ischemic area (area under the ischemic curve) ([2]; administered 90 minutes after MCAO): 31%
cell loss saved vs control ([3]; medium glucose 20 mg %): 23. %
cell loss saved vs control ([3]; medium glucose 40 mg %): 28.4%
cell loss saved vs control ([3]; medium glucose 100 mg %): 35.9%
difference in percent cell death with and without estrogen ([3]; normal glucose 200 mg %): Little difference
reduction of cell death ([4]; 1 hour anoxic insult): 28.4%
reduction of cell death ([4]; 4 hour anoxic insult): 18.4%
protection of BCEC from cumulative effect of hypoglycemia and anoxia [5]: effective in protecting cultured BCEC
protection, ischemic lesion volume [6]: significant protection
infarct area (mean±SEM) [7]: 5.3±1.6
reduction of infarct ([7]; 100 μg/kg sc in oil 2 hours prior to MCA occlusion, vs vehicle): 60%

C[C@@]12CC[C@H]3c4ccc(O)cc4CC[C@@H]3[C@H]1CC[C@H]2O [ent-17β-estradiol, (8α,9β,13α,14β,17α)-estra-1,3,5(10)-triene-3,17-diol]
effectiveness in reducing percent lesion volume compared with 17β-estradiol ([7]; 100 μg/kg sc in oil): as effective in reducing the percent lesion volume as 17β-estradiol; also recorded: as effective a therapeutic agent as 17β-estradiol
infarct area (mean±SEM) [7]: 5.3±1.7
